Measurements taken from patent US20160108008A1, “Substituted N-(Tetrazol-5-yl)- and N-(Triazol-5-yl)arylcarboxamide Compounds and Their Use as Herbicides” (BASF SE, priority 2013, published 2016).
Marks after values point to notes of the source that are not given here.

What was measured:
Assay type in all cases: in vivo
Amaranthus retroflexus [1] = assay: greenhouse pre-emergence treatment, AMARE; conditions: pre-emergence (value labeled *), scale 0-100
From the text: (§1) The culture containers used were plastic flowerpots containing loamy sand with approximately 3.0% of humus as the substrate. The seeds of the test plants were sown separately for each species.
For the pre-emergence treatment, the active ingredients, which had been suspended or emulsified in water, were applied directly after sowing by means of finely distributing nozzles. The containers were irrigated gently to promote germination and growth and subsequently covered with transparent plastic hoods until the plants had rooted. This cover caused uniform germination of the test plants, unless this has been impaired by the active ingredients.
(§2) Depending on the species, the plants were kept at 10-25° C. or 20-35° C. The test period extended over 2 to 4 weeks. During this time, the plants were tended, and their response to the individual treatments was evaluated.
(§3) Evaluation was carried out using a scale from 0 to 100. 100 means no emergence of the plants, or complete destruction of at least the aerial moieties, and 0 means no damage, or normal course of growth. A good herbicidal activity is given at values of at least 70 and a very good herbicidal activity is given at values of at least 85.
(§4) The plants used in the greenhouse experiments belonged to the following species:
(§5) Following representative compounds of formula I according to Table 9 were used in post-emergence treatments in greenhouse experiments (values labeled with * result from pre-emergence experiments): […]

Amaranthus retroflexus [2] = assay: greenhouse post-emergence treatment, AMARE; conditions: scale 0-100
From the text: as §1
(§6) For the post-emergence treatment, the test plants were first grown to a height of 3 to 15 cm, depending on the plant habit, and only then treated with the active ingredients which had been suspended or emulsified in water. For this purpose, the test plants were either sown directly and grown in the same containers, or they were first grown separately as seedlings and transplanted into the test containers a few days prior to treatment.
as §2, §3, §4, §5

Echinochloa crus-galli = assay: greenhouse post-emergence treatment, ECHCG; conditions: scale 0-100
From the text: as §1, §6, §2, §3, §4, §5

Chenopodium album = assay: greenhouse post-emergence treatment, CHEAL; conditions: scale 0-100
From the text: as §1, §6, §2, §3, §4, §5

SMILES	[%] damage to weed III (AMARE) (Amaranthus retroflexus [2]; 250 g/ha)	[%] damage to weed VII (ECHCG) (Echinochloa crus-galli; 250 g/ha) [%]	[%] damage to weed VI (CHEAL) (Chenopodium album; 250 g/ha) [%]	[%] damage to weed III (AMARE) (Amaranthus retroflexus [1]; 250 g/ha)	other results
CCC[S+]([O-])c1c(Cl)cc(F)c(C(=O)Nc2ncnn2C)c1Cl (stereo not drawn) [compound 27]					[%] damage to weed III (AMARE) (Amaranthus retroflexus [1]; 244 g/ha): 85* %; [%] damage to weed III (AMARE) (Amaranthus retroflexus [2]; 244 g/ha): 100; %; [%] damage to weed VII (ECHCG) (Echinochloa crus-galli; 244 g/ha): 98%; [%] damage to weed VI (CHEAL) (Chenopodium album; 244 g/ha): 100%
COCCOc1ccc(Cl)c(C(=O)Nc2ncnn2C)c1Cl [compound 85]	100%	85	100		
CCSc1ccc(Cl)c(C(=O)Nc2ncnn2C)c1Cl [compound 87]	100; %	98	100	98* %	
COCCn1nnnc1NC(=O)c1c(Cl)ccc(SC)c1Cl [compound 83]	100; %	100	100	100* %	
CSc1ccc(Cl)c(C(=O)Nc2nnnn2C)c1Cl [compound 82]	100; %	98	100	100* %	
CCCS(=O)(=O)c1c(Cl)cc(F)c(C(=O)Nc2nnnn2C)c1Cl [compound 24]	100; %	100	100	100* %	
CC[S+]([O-])c1c(Cl)cc(Cl)c(C(=O)Nc2nnnn2C)c1Cl (stereo not drawn) [compound 60]					[%] damage to weed III (AMARE) (Amaranthus retroflexus [1]; 500 g/ha): 100* %; [%] damage to weed III (AMARE) (Amaranthus retroflexus [2]; 500 g/ha): 100; %; [%] damage to weed VII (ECHCG) (Echinochloa crus-galli; 500 g/ha): 98%; [%] damage to weed VI (CHEAL) (Chenopodium album; 500 g/ha): 100%
COCCOc1c(Cl)cc(F)c(C(=O)Nc2nnnn2CCOC)c1Cl [compound 68]	100; %	100	100	100* %	
Cn1ncnc1NC(=O)c1c(F)cc(Cl)c(OCCC(F)(F)F)c1Cl [compound 90, 2,4-Dichloro-6-fluoro-N-(2-methyl-1,2,4-triazol-3-yl)-3-(3,3,3-trifluoropropoxy)benzamide]		90	100		
COCCn1nnnc1NC(=O)c1c(F)cc(Cl)c(OCCC(F)(F)F)c1Cl [compound 89, 2,4-Dichloro-6-fluoro-N-[1-(2-methoxyethyl)tetrazol-5-yl]-3-(3,3,3-trifluoropropoxy)-benzamide]	100; %	100	100	100* %	
CCSc1c(Cl)cc(Cl)c(C(=O)Nc2nnnn2C)c1Cl [compound 41]	100; %	100	100	100* %	
COCCn1nnnc1NC(=O)c1c(Cl)cc(F)c(SC)c1F [compound 99]	100; %	100	100	100* %	
CSc1c(F)cc(Cl)c(C(=O)Nc2nnnn2C)c1F [compound 95]	100; %	100	100	95* %	
Cn1nnnc1NC(=O)c1c(F)cc(Cl)c(OCCC(F)(F)F)c1Cl [compound 91, 2,4-Dichloro-6-fluoro-N-(1-methyltetrazol-5-yl)-3-(3,3,3-trifluoropropoxy)benzamide]	100; %	100	100	100* %	
CCC[S+]([O-])c1c(Cl)cc(F)c(C(=O)Nc2nnnn2C)c1Cl (stereo not drawn) [compound 23]	100; %	98	100	98* %	
